Measurements: PubChem BioAssay AID1963972 (Molecular Pharmacology Branch, DTP, NCI, 2024)

Test system: 945468-187-T-J2-PDC spheroids viability
Assay: Anticancer human tumor 945468-187-T-J2-PDC patient-derived rectal carcinoma cell line growth inhibition [PI3K]
Conditions: spheroids with HUVEC and MSC; for viability, T/C: stronger effect = lower value
Procedure, shortened: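 Combination activity was assessed by viability in multicellular tumor spheroids carrying HUVEC and MSC components. Agents were tested with PI3K inhibitors from a Cmax-based top dose (or 10 microM) downward in half-log increments.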

[1] = curve of first compound, second compound 0.00316 µM
[2] = curve of first compound, second compound 0.01 µM
[3] = curve of first compound, second compound 0.0316 µM
[4] = curve of first compound, second compound 0.1 µM
[5] = curve of first compound, second compound 0.316 µM
[6] = curve of first compound, second compound 1 µM
[7] = second compound 0.00316 µM, first compound 0.0316 µM
[8] = second compound 0.00316 µM, first compound 0.1 µM
[9] = second compound 0.00316 µM, first compound 0.316 µM
[10] = second compound 0.00316 µM, first compound 1 µM
[11] = second compound 0.01 µM, first compound 0.0316 µM
[12] = second compound 0.01 µM, first compound 0.1 µM
[13] = second compound 0.01 µM, first compound 0.316 µM
[14] = second compound 0.01 µM, first compound 1 µM
[15] = second compound 0.0316 µM, first compound 0.0316 µM
[16] = second compound 0.0316 µM, first compound 0.1 µM
[17] = second compound 0.0316 µM, first compound 0.316 µM
[18] = second compound 0.0316 µM, first compound 1 µM
[19] = second compound 0.1 µM, first compound 0.0316 µM
[20] = second compound 0.1 µM, first compound 0.1 µM
[21] = second compound 0.1 µM, first compound 0.316 µM
[22] = second compound 0.1 µM, first compound 1 µM
[23] = second compound 0.316 µM, first compound 0.0316 µM
[24] = second compound 0.316 µM, first compound 0.1 µM
[25] = second compound 0.316 µM, first compound 0.316 µM
[26] = second compound 0.316 µM, first compound 1 µM
[27] = second compound 1 µM, first compound 0.0316 µM
[28] = second compound 1 µM, first compound 0.1 µM
[29] = second compound 1 µM, first compound 0.316 µM
[30] = second compound 1 µM, first compound 1 µM
[31] = second compound 0.00316 µM, first compound 0.00316 µM
[32] = second compound 0.00316 µM, first compound 0.01 µM
[33] = second compound 0.01 µM, first compound 0.00316 µM
[34] = second compound 0.01 µM, first compound 0.01 µM
[35] = second compound 0.0316 µM, first compound 0.00316 µM
[36] = second compound 0.0316 µM, first compound 0.01 µM
[37] = second compound 0.1 µM, first compound 0.00316 µM
[38] = second compound 0.1 µM, first compound 0.01 µM
[39] = second compound 0.316 µM, first compound 0.00316 µM
[40] = second compound 0.316 µM, first compound 0.01 µM
[41] = second compound 1 µM, first compound 0.00316 µM
[42] = second compound 1 µM, first compound 0.01 µM
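Also: spheroids exposed to compounds for seven days before reading.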

## CC(Cn1ccc(-c2ccc(C#N)c(Cl)c2)n1)NC(=O)c1cc(C(C)O)[nH]n1 (stereo not given) + COc1c(OCCCN2CCOCC2)ccc2c3n(c(=NC(=O)c4cnc(N)nc4)nc12)CCN3
[1]
  IC50: > 10000 nM
[2]
  IC50: > 10000 nM
[3]
  IC50: > 10000 nM
[4]
  IC50: > 10000 nM
[5]
  IC50: < 31.6 nM
[6]
  IC50: < 31.6 nM
[7]
  viability, T/C: 85.6%
[8]
  viability, T/C: 112%
[9]
  viability, T/C: 124%
[10]
  viability, T/C: 94.6%
Second compound 0.00316 µM, first compound 3.16 µM
  viability, T/C: 92.2%
Second compound 0.00316 µM, first compound 10 µM
  viability, T/C: 114%
[11]
  viability, T/C: 91.3%
[12]
  viability, T/C: 104%
[13]
  viability, T/C: 117%
[14]
  viability, T/C: 115%
Second compound 0.01 µM, first compound 3.16 µM
  viability, T/C: 105%
Second compound 0.01 µM, first compound 10 µM
  viability, T/C: 108%
[15]
  viability, T/C: 90.7%
[16]
  viability, T/C: 114%
[17]
  viability, T/C: 113%
[18]
  viability, T/C: 101%
Second compound 0.0316 µM, first compound 3.16 µM
  viability, T/C: 108%
Second compound 0.0316 µM, first compound 10 µM
  viability, T/C: 89.3%
[19]
  viability, T/C: 79.4%
[20]
  viability, T/C: 95%
[21]
  viability, T/C: 81.5%
[22]
  viability, T/C: 94.3%
Second compound 0.1 µM, first compound 3.16 µM
  viability, T/C: 84.8%
Second compound 0.1 µM, first compound 10 µM
  viability, T/C: 87%
[23]
  viability, T/C: 40.8%
[24]
  viability, T/C: 33.2%
[25]
  viability, T/C: 49%
[26]
  viability, T/C: 39.2%
Second compound 0.316 µM, first compound 3.16 µM
  viability, T/C: 42.5%
Second compound 0.316 µM, first compound 10 µM
  viability, T/C: 48.1%
[27]
  viability, T/C: 21.3%
[28]
  viability, T/C: 23.5%
[29]
  viability, T/C: 22.9%
[30]
  viability, T/C: 22%
Second compound 1 µM, first compound 3.16 µM
  viability, T/C: 24.3%
Second compound 1 µM, first compound 10 µM
  viability, T/C: 25.2%

## CCN1CCN(Cc2ccc(Nc3ncc(F)c(-c4cc(F)c5nc(C)n(C(C)C)c5c4)n3)nc2)CC1 + CC(Nc1ccc2c(c1)OCCn1cc(N3C(=O)OCC3C(F)F)nc1-2)C(N)=O
[1]
  IC50: > 1000 nM
[2]
  IC50: > 1000 nM
[3]
  IC50: > 1000 nM
[4]
  IC50: > 1000 nM
[5]
  IC50: 712 nM
[6]
  IC50: 332 nM
[31]
  viability, T/C: 113%
[32]
  viability, T/C: 93.7%
[7]
  viability, T/C: 88.2%
[8]
  viability, T/C: 101%
[9]
  viability, T/C: 82.7%
[10]
  viability, T/C: 73.2%
[33]
  viability, T/C: 95.2%
[34]
  viability, T/C: 96.7%
[11]
  viability, T/C: 90.9%
[12]
  viability, T/C: 102%
[13]
  viability, T/C: 143%
[14]
  viability, T/C: 71.3%
[35]
  viability, T/C: 99%
[36]
  viability, T/C: 95.1%
[15]
  viability, T/C: 95.2%
[16]
  viability, T/C: 117%
[17]
  viability, T/C: 111%
[18]
  viability, T/C: 74.7%
[37]
  viability, T/C: 91.8%
[38]
  viability, T/C: 91.3%
[19]
  viability, T/C: 94.3%
[20]
  viability, T/C: 79.3%
[21]
  viability, T/C: 94.1%
[22]
  viability, T/C: 59.1%
[39]
  viability, T/C: 78.2%
[40]
  viability, T/C: 79.8%
[23]
  viability, T/C: 75.6%
[24]
  viability, T/C: 71.1%
[25]
  viability, T/C: 83.8%
[26]
  viability, T/C: 38.4%
[41]
  viability, T/C: 79.7%
[42]
  viability, T/C: 67.2%
[27]
  viability, T/C: 83.4%
[28]
  viability, T/C: 82.4%
[29]
  viability, T/C: 51%
[30]
  viability, T/C: 28.2%

## CC(C)n1nc(-c2ccc3oc(N)nc3c2)c2c(N)ncnc21 + CC(Nc1ccc2c(c1)OCCn1cc(N3C(=O)OCC3C(F)F)nc1-2)C(N)=O
[1]
  IC50: > 100 nM
[2]
  IC50: > 100 nM
[3]
  IC50: > 100 nM
[4]
  IC50: > 100 nM
[5]
  IC50: 75.4 nM
[6]
  IC50: 26.7 nM
Second compound 0.00316 µM, first compound 0.000316 µM
  viability, T/C: 141%
Second compound 0.00316 µM, first compound 0.001 µM
  viability, T/C: 114%
[31]
  viability, T/C: 115%
[32]
  viability, T/C: 89.4%
[7]
  viability, T/C: 107%
[8]
  viability, T/C: 83.7%
Second compound 0.01 µM, first compound 0.000316 µM
  viability, T/C: 168%
Second compound 0.01 µM, first compound 0.001 µM
  viability, T/C: 101%
[33]
  viability, T/C: 108%
[34]
  viability, T/C: 91%
[11]
  viability, T/C: 88.8%
[12]
  viability, T/C: 71%
Second compound 0.0316 µM, first compound 0.000316 µM
  viability, T/C: 105%
Second compound 0.0316 µM, first compound 0.001 µM
  viability, T/C: 85.2%
[35]
  viability, T/C: 109%
[36]
  viability, T/C: 106%
[15]
  viability, T/C: 95.7%
[16]
  viability, T/C: 73.4%
Second compound 0.1 µM, first compound 0.000316 µM
  viability, T/C: 81%
Second compound 0.1 µM, first compound 0.001 µM
  viability, T/C: 112%
[37]
  viability, T/C: 108%
[38]
  viability, T/C: 91.8%
[19]
  viability, T/C: 101%
[20]
  viability, T/C: 61.4%
Second compound 0.316 µM, first compound 0.000316 µM
  viability, T/C: 84.6%
Second compound 0.316 µM, first compound 0.001 µM
  viability, T/C: 89.7%
[39]
  viability, T/C: 82.2%
[40]
  viability, T/C: 81.5%
[23]
  viability, T/C: 75.5%
[24]
  viability, T/C: 41.8%
Second compound 1 µM, first compound 0.000316 µM
  viability, T/C: 87.4%
Second compound 1 µM, first compound 0.001 µM
  viability, T/C: 103%
[41]
  viability, T/C: 75.5%
[42]
  viability, T/C: 61.1%
[27]
  viability, T/C: 52.6%
[28]
  viability, T/C: 29.4%

## CCN1CCN(Cc2ccc(Nc3ncc(F)c(-c4cc(F)c5nc(C)n(C(C)C)c5c4)n3)nc2)CC1
Compound 0.00316 µM
  viability, T/C: 98.9% [middle of 4 runs]
Compound 0.316 µM
  viability, T/C: 98.3% [middle of 4 runs]
Compound 1 µM
  viability, T/C: 78% [middle of 4 runs]
Curve of compound
  IC50: > 1000 nM
